Results from patent US20260000695A1, “SOLID AND ORAL ETOPOSIDE TONIRIBATE COMPOSITIONS” (CELLACT PHARMA GMBH, priority 2022, published 2026).

How the values were obtained:
[1] = Solubility and pH stability of the API; format: physicochemical
[2] = Table 9A: HPLC peaks over storage time, sample and storage not described; format: physicochemical
[3] = API; cited from earlier work

With `COc1cc([C@@H]2c3cc4c(cc3[C@@H](O[C@@H]3O[C@@H]5CO[C@@H](C)O[C@H]5[C@@H](O)[C@H]3O)[C@H]3COC(=O)[C@H]23)OCO4)cc(OC)c1OC(=O)OCC1COC(C)(C)O1` (stereo partly shown) [CAP 7.1, Etoposide toniribate] the “solubility in water or aqueous buffer systems” value [1] was “practically insoluble”, the “Peak %, CAP 7.1 RT: 20.25” value ([2]; 5 days) was 98.83% and the “Peak %, RRT:0.51 RT:10.43” value ([2]; 5 days) was 0.09%. For the same compound, the “Peak %, RRT: 0.54 RT: 10.89 (Etoposide)” value ([2]; 5 days) was 0.17%, the “Peak %, RRT: 0.95 RT: 19.13” value ([2]; 5 days) was 0.09% and the “Peak %, RRT: 0.97 RT: 19.67” value ([2]; 5 days) was 0.67%. The “Peak %, RRT: 1.10 RT: 22.32” value ([2]; 5 days) was 0.04%, the “Peak %, RRT: 1.15 RT: 23.46” value ([2]; 5 days) was 0.07% and the “Peak %, RRT: 1.19 RT: 24.11” value ([2]; 5 days) was 0.04%. The “Peak %, CAP 7.1 RT: 20.25” value ([2]; 12 days) was 98.58%, the “Peak %, RRT:0.51 RT:10.43” value ([2]; 12 days) was 0.09% and the “Peak %, RRT: 0.54 RT: 10.89 (Etoposide)” value ([2]; 12 days) was 0.22%. The “Peak %, RRT: 0.95 RT: 19.13” value ([2]; 12 days) was 0.09%, the “Peak %, RRT: 0.97 RT: 19.67” value ([2]; 12 days) was 0.87% and the “Peak %, RRT: 1.10 RT: 22.32” value ([2]; 12 days) was 0.03%. For the same compound, the “Peak %, RRT: 1.15 RT: 23.46” value ([2]; 12 days) was 0.07%, the “Peak %, RRT: 1.19 RT: 24.11” value ([2]; 12 days) was 0.04% and the “Peak %, CAP 7.1 RT: 20.25” value ([2]; 17 days) was 98.18%. The “Peak %, RRT:0.51 RT:10.43” value ([2]; 17 days) was 0.17%, the “Peak %, RRT: 0.54 RT: 10.89 (Etoposide)” value ([2]; 17 days) was 0.33% and the “Peak %, RRT: 0.95 RT: 19.13” value ([2]; 17 days) was 0.10%. The “Peak %, RRT: 0.97 RT: 19.67” value ([2]; 17 days) was 1.10%, the “Peak %, RRT: 1.10 RT: 22.32” value ([2]; 17 days) was 0.04% and the “Peak %, RRT: 1.15 RT: 23.46” value ([2]; 17 days) was 0.04%. The “Peak %, RRT: 1.19 RT: 24.11” value ([2]; 17 days) was 0.04%, the “Peak %, CAP 7.1 RT: 20.25” value ([2]; initial) was 99.21% and the “Peak %, RRT: 0.54 RT: 10.89 (Etoposide)” value ([2]; initial) was 0.10%. For the same compound, the “Peak %, RRT: 0.95 RT: 19.13” value ([2]; initial) was 0.10%, the “Peak %, RRT: 0.97 RT: 19.67” value ([2]; initial) was 0.48% and the “Peak %, RRT: 1.10 RT: 22.32” value ([2]; initial) was 0.05%. The “Peak %, RRT: 1.15 RT: 23.46” value ([2]; initial) was 0.04%, the “Peak %, RRT: 1.19 RT: 24.11” value ([2]; initial) was 0.03% and the solubility in water [3] was “poorly soluble”. For the same compound, the “stability at acidic and basic pH” value [3] was “unstable”.
